Key:
[1] = DPPH radical scavenging assay; settings: 25 µM test compound, 0.1 mM DPPH, acetonitrile, 30 min
Experimental: A stable free radical DPPH (2,2-Diphenyl-1-picrylhydrazyl) assay was employed to test the antioxidant activity of all the synthesized compounds. Concisely, 25 µM of the test compounds were dissolved in acetonitrile and combined with 0.1 mM of DPPH (in acetonitrile) in a 1:2 ratio (80 µL and 160 µL). Then, the mixture was left undisturbed in the dark for 30 min at room temperature. After 30 min, the absorbance of the solutions was instantly measured at 517 nm using a Varioskan Multiplate Reader (Thermo Fisher Scientific, Mumbai, India). Ascorbic acid (in acetonitrile) was used as the positive control, and andrographolide and isoandrogapholide (in acetonitrile) were used as the standards. The following equation was used to determine the DPPH radical scavenging activity:% Radical scavenging activity = (Ac − As)/Ac × 100 where Ac = the absorbance of the blank (DPPH solution), and As = the absorbance of the test samples

[2] = tested on: 60 human cancer cell lines; assay: NCI single-dose study; assay type: cell-based; settings: single dose 10 µM, all 60 cell lines
Description: All the synthesized compounds (1a–1j and 2a–2j) were initially assessed for their anticancer potential at the National Cancer Institute (NCI, USA) against a diverse panel of 60 human cancer cell lines, representing nine distinct cancer types including leukemia, non-small-cell lung, colon, CNS, melanoma, ovarian, renal, prostate, and breast. The testing protocol employed by the NCI encompasses two stages: initial assessment at a single dose and subsequent evaluation at five doses.
Initially, a comprehensive anticancer screening of all twenty compounds (1a–1j and 2a–2j), including the parent compounds ADG and ISOADG, was conducted using a 10 µM dose across all 60 cell lines (a standardized protocol followed for the initial assessment of test compounds by the NCI). […] As a result, these ten compounds were chosen for five-dose studies.

Structure (SMILES)	% DPPH radical scavenging activity [1]	% growth inhibition [2]
C=C1CC[C@@H]2[C@](C)(CO)[C@H](O)CC[C@@]2(C)[C@@H]1C/C=C1/C(=O)OC[C@H]1O [ADG, andrographolide]	58.74%	lower % growth inhibition
CC12CC[C@@H]3[C@](C)(CO)[C@H](O)CC[C@@]3(C)[C@@H]1CC(C1=CCOC1=O)O2 (some centres unmarked) [ISOADG, isoandrographolide, reference compound]	57.94%	lower % growth inhibition
O=C1O[C@H]([C@@H](O)CO)C(O)=C1O [ascorbic acid, reference compound]	69.26%	–

— paper PMC12298351, “Novel 3,19-(N-Phenyl-3-(4-fluorophenyl)-pyrazole) Acetal of Andrographolide Promotes Cell Cycle Arrest and Apoptosis in MDA-MB-231 Breast Cancer Cells” (Pharmaceuticals, 2025)
